Legend:
[1] = test system: rat carotid artery balloon injury; assay: Rat carotid artery balloon injury model; type: in vivo
[2] = test system: New Zealand White rabbit iliac arteries; assay: Rabbit iliac stent model (in-stent restenosis); type: in vivo; details: oral gavage, vs placebo
Protocol: Inhibition of In-Stent Restenosis and Proximal and Distal Lesion Development at 28 Days in the Rabbit Iliac Stent Model A combined angioplasty and stenting procedure is performed in New Zealand White rabbit iliac arteries. Iliac artery balloon injury is performed by inflating a 3.0×9.0 mm angioplasty balloon in the mid-portion of the artery followed by “pull-back” of the catheter for 1 balloon length. Balloon injury is repeated 2 times, and a 3.0×12 mm stent is deployed at 6 atm for 30 seconds in the iliac artery. Balloon injury and stent placement is then performed on the contralateral iliac artery in the same manner. A post-stent deployment angiogram is performed. All animals receive oral aspirin 40 mg/day daily as anti-platelet therapy and are fed standard low-cholesterol rabbit chow. Twenty-eight days after stenting, animals are anesthetized and euthanized and the arterial tree is perfused at 100 mmHg with lactated Ringer's solution for several minutes, then perfused with 10% formalin at 100 mmHg for 15 minutes. The vascular section between the distal aorta and the proximal femoral arteries is excised and cleaned of periadventitial tissue. Three sections of artery are sampled: the stented section, the artery 5 mm immediately proximal to the stent and the artery 5 mm immediately distal to the stent is embedded in plastic. Sections are taken from the proximal, middle, and distal portions of each stent. Serial sections are also taken of the first 2 mm proximal and distal to the stent. Sections are stained with hematoxylin-eosin and Movat pentachrome stains. […] The neointima and neointimal thickness is measured both at and between the stent struts. The vessel area is measured as the area within the EEL. Cells staining positively as macrophages are counted in the sections taken from the stented area of artery. Data are expressed as mean ±SEM. Statistical analysis of the histologic data is accomplished using ANOVA due to the fact that two stented arteries are measured per animal with a mean generated per animal. […]

[3] = Drug release from polymer coatings in aqueous solution; type: physicochemical; details: PBS pH 7.4 or PEG/water 40/60 v/v, 37°, solutions changed daily; stable = less than 10% variation of the drug release rate
Protocol: (§1) A stent (e.g. a Multi-Link Vision stent, Guidant Corp.; or a DRIVER stent, Medtronic Corp.) is weighed and then mounted on a rotating or other support for coating with a polymeric or other synthetic or biological carrier used as a drug reservoir. In an exemplary carrier application procedure, while the stent is rotating, a 100 μl aliquot of a solution of polylactide glycolide, 0.75 mg/ml of pimecrolimus and 0.0015 mg/ml 2,6-di-tert-butyl-4-methylphenol dissolved in a 50:50 mixture of methanol and tetrahydrofuran, is coated onto it. The coated stent is removed from the support and allowed to air-dry. After a final weighing the amount of coating on the stent is determined.
Drug Release from Polymer Coatings in Aqueous Solution
Four 2 cm pieces of stents coated as described in Example 3 above are placed into 100 ml of PBS having a pH of 7.4. Another 4 pieces from each series are placed into 100 ml of PEG/water solution (40/60 v/v, MW of PEG=400). The stent pieces are incubated at 37° in a shaker. The buffer and PEG solutions are changed daily and different assays are performed on the solution to determine the released pimecrolimus concentrations. […] The term “stable pimecrolimus” means that less than 10% variation of the drug release rate is observed.

[4] = Drug release from polymer coatings in plasma; type: physicochemical; details: citrated human plasma, 37°, changed daily; stable = less than 10% variation of the drug release rate
Protocol: as §1
Drug Release from Polymer Coatings in Plasma
Release of pimecrolimus in plasma is also studied. 1 cm pieces of a coated stent are put into 1 ml of citrated human plasma (from Helena Labs) in lyophilized form and reconstituted by adding 1 ml of sterile deionized water. Three sets of stent plasma solutions are incubated at 37° and the plasma is changed daily. Different assays are performed on the solution to determine the released pimecrolimus concentrations.

[5] = test system: allogeneic kidney transplantation; details: oral administration; cited from earlier work

Row | SMILES | constrictive remodeling ([1]; local administration to the adventitia) | infiltration of CD45+ leukocytes ([1]; local administration to the adventitia via catheter/Alzet minipump, day 1) | early and late neointimal lesions ([1]; local administration to the adventitia, early 9 days and late 21-28 days post-ballooning) | CD45-positive leukocyte infiltration into the vessel wall and adventitia ([1]; oral dosing, 1 day post-balloon injury) | neointimal lesion formation following balloon injury ([1]; oral dosing, at 9 and 12 days) | extent of restenotic lesion formation ([2]; 28 days after stenting) | lesion formation in the portions of artery immediately proximal and immediately distal to the stent ([2]; 28 days) | number of inflammatory cells, especially in the area surrounding the stent struts ([2]; 28 days) | pimecrolimus release from coated stents [3] | pimecrolimus release from coated stents in plasma [4] | minimum effective dose (MED) [5] [mg/kg]
1 | CC[C@@H]1/C=C(\C)C[C@H](C)C[C@H](OC)[C@H]2O[C@@](O)(C(=O)C(=O)N3CCCC[C@H]3C(=O)O[C@H](/C(C)=C/[C@@H]3CC[C@H](Cl)[C@H](OC)C3)[C@H](C)[C@@H](O)CC1=O)[C@H](C)C[C@@H]2OC [pimecrolimus, {[1E-(1R,3R,4S)]1R,9S,12S,13R,14S,17R,18E,21S,23S,24R,25S,27R}-12-[2-(4-chloro-3-methoxycyclohexyl)-1-methylvinyl]-17-ethyl-1,14-dihydroxy-23,25-dimethoxy-13,19,21,27-tetramethyl-11,28,dioxa-4-azatricyclo [22.3.1.0(4,9)]octacos-18-ene-2,3,10,16-tetraone] | potent inhibition | potent inhibition | potent inhibition | significantly reduce | significantly reduce | marked reduction | inhibited | significantly reduced | stable pimecrolimus release | stable pimecrolimus release | 
2 | C=CC[C@@H]1/C=C(\C)C[C@H](C)C[C@H](OC)[C@H]2O[C@@](O)(C(=O)C(=O)N3CCCC[C@H]3C(=O)O[C@H](/C(C)=C/[C@@H]3CC[C@@H](O)[C@H](OC)C3)[C@H](C)[C@@H](O)CC1=O)[C@H](C)C[C@@H]2OC [tacrolimus] |  |  |  |  |  |  |  |  |  |  | 14

— patent US20060035879A1, “Organic Compounds” (priority 2002, published 2006)
